Measured values: patent US9855244B2, “O/W-emulsion-type topical pharmaceutical compositions containing a retinoid” (GALDERMA RESEARCH & DEVELOPMENT, priority 2012, dated 2018)

Key:
[1] = Stability of Compound A in mixtures of excipients (solvent/surfactants), determined by HPLC; format: physicochemical; conditions: limits 95%-105% relative to T0
Text: (§1) The limits set for good stability are 95%-105% as relative percentage with respect to T0.

[2] = Pre-formulation studies: solubility of Compound A; format: physicochemical; conditions: in the solvents customarily used in the fatty phases of topical emulsions
Experimental: (§2) In order to produce an oil-in-water (O/W) emulsion according to the invention, pre-formulation studies were carried out in order to reveal the excipients enabling good solubilization and also good stability of the active agent.

[3] = Stability of Compound A in its principal oily solvents (determined by HPLC); format: physicochemical; conditions: limits 95%-105% relative to T0
Experimental: as §2
Stability of Compound A in its Principal Oily Solvents (Determined by HPLC)
as §1

[4] = "Single time" cutaneous penetration study, Franz cell, 16 h; format: in vitro ADME; conditions: 16 h application, ex vivo human skin, FIG. 1; stratum corneum, epidermis, dermis, receiving liquid
Text: The in vitro tests are developed on glass diffusion cells (termed “Franz cells”) or Teflon diffusion cells, in static or dynamic modes. The cells consist of two compartments, a donor compartment and a receiver compartment, separated by a membrane, the orientation of which may be vertical or horizontal.
The membranes have a surface area generally of between 1 and 4 cm^2; they can be synthetic (cellulose, polydimethylsiloxane, etc.), but animal or human skin biopsies are preferable.
Samples of receiver liquid can be taken, at regular times over the course of 24 hours, in order to enable the establishment of the kinetics of diffusion through the skin when this proves necessary. At the end of a maximum of 24 h of application, in the case of the pharmaceutical and cosmetic products, the Franz cells are dismantled, and the substance studied is quantified in the following compartments: formulation remains, stratum corneum, epidermidis, dermis, and receiver liquid. The mass balance can in this case be established, which makes it possible to quantify the “absorbed” doses (present in the receiver liquid), the doses “having penetrated” (present in the viable epidermidis and the dermis) and the “nonabsorbed” doses (present in the formulation remains and the stratum corneum).
Two types of cutaneous penetration studies on human skin ex vivo were therefore carried out. […]

CC(C)(C)c1cc(-c2cc(-c3ccc(C(=O)O)cc3)ccc2OCCO)ccc1N1CCCC1 [Compound A, 3″-Tert-butyl-4′-(2-hydroxyethoxy)-4″-pyrrolidin-1-yl[1,1′;3′,1″]terphenyl-4-carboxylic acid]
Stability results ([1]; Compound A 0.05% in Arlacel 165/Lauroglycol FCC): Unstable | Stability results ([1]; Compound A 0.05% in Cremophor EL/Labrafil M1944CS): Unstable | Stability results ([1]; Compound A 0.05% in Cremophor EL/Lauroglycol FCC): Unstable | Stability results ([1]; Compound A 0.05% in GlucateSS-Glucamate SSE-20/Arlamol E): Unstable | Stability results ([1]; Compound A 0.05% in Tween 80/Arlamol E): Unstable | Stability results ([1]; Compound A 0.2% in Cremophor EL/Labrafil M1944CS): Unstable | Stability results ([1]; Compound A 0.2% in Tween 80/Hexylene glycol): Unstable | Stability results ([1]; Compound A 0.2% in Tween 80/Lauroglycol FCC): Unstable | Solubility [2]: low solubility | Stability results ([3]; Compound A 0.005% in Miglyol 812N (Caprylic/capric triglycerides), 40° C.): Stable/Ok 6 Months | Stability results ([3]; Compound A 0.005% in Sweet almond oil, 40° C.): Stable/Ok 6 Months | Stability results ([3]; Compound A 0.05% in Arlacel 83V Pharma (Sorbitan Sesquioleate), 40° C.): Stable/Ok 6 Months | Stability results ([3]; Compound A 0.05% in Arlamol E (PPG-15 stearyl ether), 40° C.): Stable/Ok 6 Months | Stability results ([3]; Compound A 0.05% in Arlasolve DMI (Dimethyl Isosorbide)): Unstable | Stability results ([3]; Compound A 0.05% in Benzyl alcohol): Unstable | Stability results ([3]; Compound A 0.05% in Brij 30 (Laureth-4)): Unstable | Stability results ([3]; Compound A 0.05% in Capryol 90 (Propylene glycol monocaprylate), 40° C.): Stable/Ok 6 Months | Stability results ([3]; Compound A 0.05% in Dipropylene Glycol Care (Dipropylene glycol)): Unstable | Stability results ([3]; Compound A 0.05% in Eutanol G (Octyldodecanol)): Unstable | Stability results ([3]; Compound A 0.05% in Labrafil M1944CS (Apricot Kernel Oil PEG-6 Ester), 40° C.): Stable/Ok 6 Months | Stability results ([3]; Compound A 0.05% in Lauroglycol FCC (Propylene glycol laurate), 40° C.): Stable/Ok 6 Months | Stability results ([3]; Compound A 0.05% in Myritol PC (Propylene glycol dicaprylate/dicaprate)): Unstable | Stability results ([3]; Compound A 0.05% in Phenoxetol (Phenoxyethanol), 40° C.): Stable/Ok 6 Months | Distribution profile of compound A in the various skin compartments [4]: preferential localization and an accumulation of compound A in the stratum corneum and, less preferentially, in the epidermis
